From ChEMBL document CHEMBL3580555, “Design, Synthesis, and Biological Evaluation of Novel Imidazo[1,2-a]pyridine Derivatives as Potent c-Met Inhibitors” (ACS Med Chem Lett, 2015)
Blank lines part the entries; values can stand above or below the compound they belong to. Calls of active or inactive are those of the source. The calls are words filed in the database; no cut-off is given here.

Assays:
[1] = Antiproliferative activity against human EBC1 cells after 72 hrs; settings: EBC-1, 72 h
[2] = biological target: Hepatocyte growth factor receptor (Homo sapiens) (UniProt P08581); test: Inhibition of C-Met (unknown origin) using polu (Glu,Tyr)4:1 substrate at 100 uM after 30 mins incubation by multi-well spectrophotometry
[3] = biological target: Hepatocyte growth factor receptor (Homo sapiens) (UniProt P08581); test: Inhibition of C-Met (unknown origin) using polu (Glu,Tyr)4:1 substrate at 1 uM after 30 mins incubation by multi-well spectrophotometry
Liver = test: Drug formation in CD1 mouse liver microsomes treated with 2-Fluoro-4-(8-fluoro-3-(quinolin-6-ylmethyl)imidazo[1,2-a]pyridin-6-yl)-N-methylbenzamide after 60 mins by UPLC/Q-TOF MS/MS analysis; assay type: ADME; settings: 1 h
Liver microsome [4] = test: Drug formation in human liver microsomes treated with 2-Fluoro-4-(8-fluoro-3-(quinolin-6-ylmethyl)imidazo[1,2-a]pyridin-6-yl)-N-methylbenzamide after 60 mins by UPLC/Q-TOF MS/MS analysis; assay type: ADME; settings: 1 h
[5] = Drug formation in monkey liver microsomes treated with 2-Fluoro-4-(8-fluoro-3-(quinolin-6-ylmethyl)imidazo[1,2-a]pyridin-6-yl)-N-methylbenzamide after 60 mins by UPLC/Q-TOF MS/MS analysis; assay type: ADME, Macaca mulatta; settings: rhesus monkey, 1 h
Liver microsome [6] = test: Drug formation in beagle dog liver microsomes treated with 2-Fluoro-4-(8-fluoro-3-(quinolin-6-ylmethyl)imidazo[1,2-a]pyridin-6-yl)-N-methylbenzamide after 60 mins by UPLC/Q-TOF MS/MS analysis; assay type: ADME, Canis lupus familiaris; settings: 1 h
Liver microsome [7] = test: Drug metabolism in Sprague-Dawley rat liver microsomes assessed as 2-Fluoro-4-(8-fluoro-3-(hydroxy(quinolin-6-yl)methyl)imidazo[1,2-a]pyridin-6-yl)-N-methylbenzamide metabolite formation after 60 mins by UPLC/Q-TOF MS/MS analysis; assay type: ADME; settings: 1 h
Liver microsome [8] = test: Drug metabolism in beagle dog liver microsomes assessed as 2-Fluoro-4-(8-fluoro-3-(hydroxy(quinolin-6-yl)methyl)imidazo[1,2-a]pyridin-6-yl)-N-methylbenzamide metabolite formation after 60 mins by UPLC/Q-TOF MS/MS analysis; assay type: ADME, Canis lupus familiaris; settings: 1 h
Liver microsome [9] = test: Drug metabolism in human liver microsomes assessed as 2-Fluoro-4-(8-fluoro-3-(hydroxy(quinolin-6-yl)methyl)imidazo[1,2-a]pyridin-6-yl)-N-methylbenzamide metabolite formation after 60 mins by UPLC/Q-TOF MS/MS analysis; assay type: ADME; settings: 1 h
[10] = Drug metabolism in monkey liver microsomes assessed as 2-Fluoro-4-(8-fluoro-3-(hydroxy(quinolin-6-yl)methyl)imidazo[1,2-a]pyridin-6-yl)-N-methylbenzamide metabolite formation after 60 mins by UPLC/Q-TOF MS/MS analysis; assay type: ADME, Macaca mulatta; settings: rhesus monkey, 1 h
Liver microsome [11] = test: Drug formation in Sprague-Dawley rat liver microsomes treated with 2-Fluoro-4-(8-fluoro-3-(quinolin-6-ylmethyl)imidazo[1,2-a]pyridin-6-yl)-N-methylbenzamide after 60 mins by UPLC/Q-TOF MS/MS analysis; assay type: ADME; settings: 1 h
[12] = biological target: Voltage-gated inwardly rectifying potassium channel KCNH2 (Homo sapiens, UniProt Q12809); test: Inhibition of human ERG channel
EBC-1 [13] = test: Antitumor activity against human EBC1 cells xenografted in po dosed mouse assessed as tumor growth inhibition treated for 3 weeks; assay type: functional, organism-based
[14] = Antitumor activity against human EBC1 cells xenografted in mouse assessed as tumor growth inhibition treated at 100 mg/kg, po for 3 weeks; assay type: functional; settings: EBC-1, po, 504 h
[15] = Antitumor activity against human EBC1 cells xenografted in mouse assessed as tumor growth inhibition treated at 50 mg/kg, po for 3 weeks; assay type: functional; settings: EBC-1, po, 504 h, read-out: INH
Mus musculus = test: Toxicity in human EBC1 cells xenografted in mouse assessed as weight losses treated at 50 to 100 mg/kg, po for 3 weeks; assay type: organism-based; settings: in vivo, 504 h
[16] = Antiproliferative activity against human BGC823 cells after 72 hrs; assay type: functional, cell-based; settings: BGC-823, 72 h
MGC-803 = test: Antiproliferative activity against human MGC803 cells after 72 hrs; assay type: functional, cell-based; settings: MGC-803, 72 h
[17] = Antiproliferative activity against human SPCA1 cells after 72 hrs; assay type: functional, cell-based; settings: SPCA1, 72 h
[18] = Antiproliferative activity against human SPCA4 cells after 72 hrs; assay type: functional, cell-based; settings: SPC-A4, 72 h
[19] = Antiproliferative activity against human Calu3 cells after 72 hrs; assay type: functional, cell-based; settings: Calu-3, 72 h
[20] = Antiproliferative activity against human SGC7901 cells after 72 hrs; assay type: functional, cell-based; settings: SGC-7901, 72 h
[21] = Antiproliferative activity against human MKN74 cells after 72 hrs; assay type: functional, cell-based; settings: MKN-74, 72 h
[22] = Antiproliferative activity against human MKN1 cells after 72 hrs; assay type: functional, cell-based; settings: MKN-1, 72 h
HT-29 = test: Antiproliferative activity against human HT-29 cells after 72 hrs; assay type: functional, cell-based; settings: HT-29, 72 h
AGS = test: Antiproliferative activity against human AGS cells after 72 hrs; assay type: functional, cell-based
[23] = Antiproliferative activity against human SNU16 cells after 72 hrs; assay type: functional, cell-based; settings: SNU-16, 72 h
SNU1 = test: Antiproliferative activity against human SNU1 cells after 72 hrs; assay type: functional, cell-based; settings: SNU1, 72 h
A549 = test: Antiproliferative activity against human A549 cells after 72 hrs; assay type: functional, cell-based; settings: A549, 72 h
[24] = biological target: Tyrosine-protein kinase receptor UFO (Homo sapiens, UniProt P30530); test: Inhibition of Axl (unknown origin) using polu (Glu,Tyr)4:1 substrate after 30 mins incubation by multi-well spectrophotometry
[25] = biological target: Tyrosine-protein kinase Mer (Homo sapiens, UniProt Q12866); test: Inhibition of Mer (unknown origin) using polu (Glu,Tyr)4:1 substrate after 30 mins incubation by multi-well spectrophotometry
[26] = biological target: Tyrosine-protein kinase receptor TYRO3 (Homo sapiens, UniProt Q06418); test: Inhibition of Tyro3 (unknown origin) using polu (Glu,Tyr)4:1 substrate after 30 mins incubation by multi-well spectrophotometry
[27] = Antiproliferative activity against human MKN45 cells after 72 hrs; assay type: functional, cell-based; settings: MKN-45, 72 h
[28] = Antiproliferative activity against human SNU5 cells after 72 hrs; assay type: functional, cell-based; settings: SNU-5, 72 h
BaF3 = test: Antiproliferative activity against mouse BAF3/TPR-Met cells after 72 hrs; assay type: functional, cell-based; settings: BaF3, 72 h
EBC-1 [29] = test: Induction of cell cycle arrest in human EBC1 cells assessed as cell accumulation at G1/S phase at 1 uM after 24 hrs by FACS analysis; assay type: functional, cell-based
EBC-1 [30] = test: Induction of cell cycle arrest in human EBC1 cells assessed as cell accumulation at G1 phase at 1 uM after 24 hrs by FACS analysis (reference value: 52.95%); assay type: functional
NCI-H441 [31] = test: Inhibition of HGF-induced human NCI-H441 cell migration at 500 nM after 24 hrs by spectrophotometry; assay type: functional, cell-based
NCI-H441 [32] = test: Inhibition of HGF-induced human NCI-H441 cell invasion at 500 nM after 24 hrs by spectrophotometry; assay type: functional, cell-based
MDCK = test: Reduction in HGF-induced cell scattering of MDCK cells after 24 hrs by microscopy; assay type: functional, cell-based; settings: Canis lupus familiaris
[33] = Half life in Sprague-Dawley rat at 10 mg/kg, iv; assay type: ADME, organism-based; settings: in vivo
[34] = Oral bioavailability in Sprague-Dawley rat at 20 mg/kg; assay type: ADME, organism-based; settings: in vivo
[35] = Drug metabolism in CD1 mouse liver microsomes assessed as 2-Fluoro-4-(8-fluoro-3-(hydroxy(quinolin-6-yl)methyl)imidazo[1,2-a]pyridin-6-yl)-N-methylbenzamide metabolite formation after 60 mins by UPLC/Q-TOF MS/MS analysis; assay type: ADME; settings: 1 h
NCI-H520 = test: Antiproliferative activity against human NCI-H520 cells after 72 hrs; assay type: functional, cell-based; settings: NCI-H520, 72 h
NCI-H1975 = test: Antiproliferative activity against human NCI-H1975 cells after 72 hrs; assay type: functional, cell-based; settings: NCI-H1975, 72 h
NCI-H1650 = test: Antiproliferative activity against human NCI-H1650 cells after 72 hrs; assay type: functional, cell-based; settings: NCI-H1650, 72 h
NCI-H1299 = test: Antiproliferative activity against human NCI-H1299 cells after 72 hrs; assay type: functional, cell-based; settings: NCI-H1299, 72 h
NCI-H596 = test: Antiproliferative activity against human NCI-H596 cells after 72 hrs; assay type: functional, cell-based; settings: NCI-H596, 72 h
NCI-H226 = test: Antiproliferative activity against human NCI-H226 cells after 72 hrs; assay type: functional, cell-based; settings: NCI-H226, 72 h
NCI-H292 = test: Antiproliferative activity against human NCI-H292 cells after 72 hrs; assay type: functional, cell-based; settings: NCI-H292, 72 h
NCI-H23 = test: Antiproliferative activity against human NCI-H23 cells after 72 hrs; assay type: functional, cell-based; settings: NCI-H23, 72 h
NCI-H358 = test: Antiproliferative activity against human NCI-H358 cells after 72 hrs; assay type: functional, cell-based; settings: NCI-H358, 72 h
NCI-H661 = test: Antiproliferative activity against human NCI-H661 cells after 72 hrs; assay type: functional, cell-based; settings: NCI-H661, 72 h

Hepatocyte growth factor receptor (Homo sapiens), sequence (P08581 whole entry): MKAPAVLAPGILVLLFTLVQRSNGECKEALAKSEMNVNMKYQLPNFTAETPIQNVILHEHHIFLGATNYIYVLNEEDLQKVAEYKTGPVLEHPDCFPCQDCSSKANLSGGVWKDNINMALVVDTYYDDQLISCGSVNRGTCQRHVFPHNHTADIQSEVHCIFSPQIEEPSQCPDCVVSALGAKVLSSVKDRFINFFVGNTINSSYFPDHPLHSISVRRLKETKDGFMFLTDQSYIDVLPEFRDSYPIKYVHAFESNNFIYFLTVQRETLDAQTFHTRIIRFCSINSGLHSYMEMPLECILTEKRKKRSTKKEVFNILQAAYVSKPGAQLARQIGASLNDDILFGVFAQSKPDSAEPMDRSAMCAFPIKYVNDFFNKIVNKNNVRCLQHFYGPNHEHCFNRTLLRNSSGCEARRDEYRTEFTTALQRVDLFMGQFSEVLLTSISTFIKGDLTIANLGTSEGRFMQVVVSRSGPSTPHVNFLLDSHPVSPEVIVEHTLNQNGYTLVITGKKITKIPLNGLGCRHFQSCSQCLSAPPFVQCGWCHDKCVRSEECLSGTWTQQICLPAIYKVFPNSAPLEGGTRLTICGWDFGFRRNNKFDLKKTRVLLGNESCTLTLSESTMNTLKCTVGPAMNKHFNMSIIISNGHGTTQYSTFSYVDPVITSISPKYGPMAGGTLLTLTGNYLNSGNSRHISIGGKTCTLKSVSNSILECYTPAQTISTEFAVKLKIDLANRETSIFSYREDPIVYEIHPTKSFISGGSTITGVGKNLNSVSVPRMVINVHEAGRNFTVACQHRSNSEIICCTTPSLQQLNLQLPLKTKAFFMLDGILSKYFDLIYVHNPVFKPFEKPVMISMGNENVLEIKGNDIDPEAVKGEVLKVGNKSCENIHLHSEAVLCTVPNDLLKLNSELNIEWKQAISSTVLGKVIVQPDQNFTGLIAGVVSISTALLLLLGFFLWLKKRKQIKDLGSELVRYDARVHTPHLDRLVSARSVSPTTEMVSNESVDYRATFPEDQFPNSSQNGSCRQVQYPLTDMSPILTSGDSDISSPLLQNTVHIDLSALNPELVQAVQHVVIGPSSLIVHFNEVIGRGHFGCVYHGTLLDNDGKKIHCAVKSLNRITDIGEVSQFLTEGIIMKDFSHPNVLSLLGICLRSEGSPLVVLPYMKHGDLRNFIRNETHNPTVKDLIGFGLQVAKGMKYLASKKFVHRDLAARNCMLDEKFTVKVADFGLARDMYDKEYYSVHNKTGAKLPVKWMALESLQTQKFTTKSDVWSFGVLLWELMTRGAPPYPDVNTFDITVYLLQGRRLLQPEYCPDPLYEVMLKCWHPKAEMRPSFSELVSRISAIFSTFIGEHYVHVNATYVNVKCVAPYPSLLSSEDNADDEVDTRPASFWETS
Tyrosine-protein kinase Mer, sequence (Q12866 whole entry): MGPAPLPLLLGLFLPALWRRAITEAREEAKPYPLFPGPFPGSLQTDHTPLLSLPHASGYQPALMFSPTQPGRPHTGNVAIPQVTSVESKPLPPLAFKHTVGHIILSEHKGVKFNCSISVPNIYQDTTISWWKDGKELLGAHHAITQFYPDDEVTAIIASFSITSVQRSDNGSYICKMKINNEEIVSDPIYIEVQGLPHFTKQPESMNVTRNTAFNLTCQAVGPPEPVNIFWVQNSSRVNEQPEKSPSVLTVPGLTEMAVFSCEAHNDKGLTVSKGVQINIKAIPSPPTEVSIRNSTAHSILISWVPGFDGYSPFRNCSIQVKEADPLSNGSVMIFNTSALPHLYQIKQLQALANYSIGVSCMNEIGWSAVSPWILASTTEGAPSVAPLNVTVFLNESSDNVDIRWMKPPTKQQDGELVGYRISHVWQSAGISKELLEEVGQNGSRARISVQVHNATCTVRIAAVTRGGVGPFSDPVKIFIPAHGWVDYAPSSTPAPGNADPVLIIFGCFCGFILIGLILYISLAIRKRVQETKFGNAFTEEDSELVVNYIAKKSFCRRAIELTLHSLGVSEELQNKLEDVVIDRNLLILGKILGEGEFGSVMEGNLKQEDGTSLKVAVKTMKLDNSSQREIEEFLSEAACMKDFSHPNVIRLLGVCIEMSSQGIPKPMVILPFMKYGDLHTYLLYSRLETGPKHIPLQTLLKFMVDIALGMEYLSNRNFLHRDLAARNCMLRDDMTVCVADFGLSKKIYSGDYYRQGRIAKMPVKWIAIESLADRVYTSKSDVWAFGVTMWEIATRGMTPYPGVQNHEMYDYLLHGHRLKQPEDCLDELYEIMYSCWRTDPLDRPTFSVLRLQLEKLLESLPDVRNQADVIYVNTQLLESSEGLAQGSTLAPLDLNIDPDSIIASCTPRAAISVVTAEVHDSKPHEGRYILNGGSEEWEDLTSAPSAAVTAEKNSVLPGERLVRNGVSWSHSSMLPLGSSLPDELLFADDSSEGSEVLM
Voltage-gated inwardly rectifying potassium channel KCNH2, sequence (Q12809 whole entry): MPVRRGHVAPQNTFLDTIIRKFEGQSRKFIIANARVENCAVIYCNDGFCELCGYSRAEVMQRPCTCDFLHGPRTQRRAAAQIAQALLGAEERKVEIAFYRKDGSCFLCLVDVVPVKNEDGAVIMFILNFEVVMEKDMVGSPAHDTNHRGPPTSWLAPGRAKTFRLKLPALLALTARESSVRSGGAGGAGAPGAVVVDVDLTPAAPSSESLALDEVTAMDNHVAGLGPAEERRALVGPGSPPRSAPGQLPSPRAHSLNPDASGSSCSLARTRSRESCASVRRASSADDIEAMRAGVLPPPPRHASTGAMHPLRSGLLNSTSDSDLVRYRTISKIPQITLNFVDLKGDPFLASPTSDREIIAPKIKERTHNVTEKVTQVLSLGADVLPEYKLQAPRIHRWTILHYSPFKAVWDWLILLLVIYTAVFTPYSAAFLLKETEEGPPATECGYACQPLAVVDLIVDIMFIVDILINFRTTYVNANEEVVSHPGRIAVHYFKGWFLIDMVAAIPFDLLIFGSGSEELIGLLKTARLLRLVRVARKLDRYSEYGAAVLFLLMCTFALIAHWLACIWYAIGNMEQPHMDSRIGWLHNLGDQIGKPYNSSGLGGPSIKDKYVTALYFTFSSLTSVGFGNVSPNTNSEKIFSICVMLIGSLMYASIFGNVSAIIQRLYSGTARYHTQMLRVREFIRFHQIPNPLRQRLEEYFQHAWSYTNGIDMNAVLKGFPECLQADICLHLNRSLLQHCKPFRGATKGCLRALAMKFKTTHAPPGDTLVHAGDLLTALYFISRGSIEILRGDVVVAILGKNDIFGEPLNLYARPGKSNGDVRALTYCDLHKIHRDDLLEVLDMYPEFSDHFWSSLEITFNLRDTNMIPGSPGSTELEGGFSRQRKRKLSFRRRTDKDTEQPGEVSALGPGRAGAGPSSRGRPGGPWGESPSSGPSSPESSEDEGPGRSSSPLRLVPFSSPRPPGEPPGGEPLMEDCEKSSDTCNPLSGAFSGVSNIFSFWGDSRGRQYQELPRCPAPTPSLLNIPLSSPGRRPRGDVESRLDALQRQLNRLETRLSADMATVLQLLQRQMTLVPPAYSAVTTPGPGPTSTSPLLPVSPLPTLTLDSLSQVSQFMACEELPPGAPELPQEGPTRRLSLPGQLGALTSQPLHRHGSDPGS
Tyrosine-protein kinase receptor UFO, sequence (P30530 whole entry): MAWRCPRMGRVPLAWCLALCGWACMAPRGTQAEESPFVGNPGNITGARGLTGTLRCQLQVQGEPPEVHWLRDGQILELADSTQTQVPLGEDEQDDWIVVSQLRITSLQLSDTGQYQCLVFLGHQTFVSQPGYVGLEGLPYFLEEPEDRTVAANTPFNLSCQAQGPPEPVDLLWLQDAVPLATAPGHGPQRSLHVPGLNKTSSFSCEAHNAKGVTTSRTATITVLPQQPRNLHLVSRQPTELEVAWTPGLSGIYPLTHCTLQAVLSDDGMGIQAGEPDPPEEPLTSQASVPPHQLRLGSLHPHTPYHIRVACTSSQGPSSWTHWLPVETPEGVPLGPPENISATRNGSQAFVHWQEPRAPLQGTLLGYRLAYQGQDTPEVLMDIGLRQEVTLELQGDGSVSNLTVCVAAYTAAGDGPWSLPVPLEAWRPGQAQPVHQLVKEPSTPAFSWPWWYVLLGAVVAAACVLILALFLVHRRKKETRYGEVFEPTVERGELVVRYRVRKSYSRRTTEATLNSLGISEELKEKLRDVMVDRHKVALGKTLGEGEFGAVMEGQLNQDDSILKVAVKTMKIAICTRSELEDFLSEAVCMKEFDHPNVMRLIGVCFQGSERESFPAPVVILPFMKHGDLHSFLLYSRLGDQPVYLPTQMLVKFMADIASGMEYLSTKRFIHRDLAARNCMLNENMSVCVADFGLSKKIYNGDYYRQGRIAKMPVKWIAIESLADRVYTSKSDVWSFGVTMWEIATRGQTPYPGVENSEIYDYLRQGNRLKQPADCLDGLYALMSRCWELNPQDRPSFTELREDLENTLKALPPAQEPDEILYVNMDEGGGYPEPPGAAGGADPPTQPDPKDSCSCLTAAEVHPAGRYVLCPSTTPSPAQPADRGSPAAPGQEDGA

Compound: CNC(=O)c1cc(-c2cc(F)c3ncc(Cc4ccc5ncccc5c4)n3c2)ccc1Cl
- IC50 [1]: 946 nM

- inhibition [2]: 34.5%
Compound: Cn1cc(-c2cc(C#N)c3ncc(Cc4ccc5ncccc5c4)n3c2)cn1

- inhibition [3]: 9.6%
Compound: Cn1cc(-c2cc(C(F)(F)F)c3ncc(Cc4ccc5ncccc5c4)n3c2)cn1

Compound: CNC(=O)c1cc(-c2cc(F)c3ncc(Cc4ccc5ncccc5c4)n3c2)ccc1F
- IC50 [1]: 246 nM

Compound: O=C(NCc1ccccn1)c1ccc(-c2cc(F)c3ncc(Cc4ccc5ncccc5c4)n3c2)cc1F
- IC50 [1]: 5550 nM

- Drug metabolism (Liver): metabolite_detected
- Drug metabolism (Liver microsome [4]): metabolite_detected
- Drug metabolism [5]: metabolite_detected
- Drug metabolism (Liver microsome [6]): metabolite_detected
Compound: CNC(=O)c1ccc(-c2cc(F)c3ncc(C(O)c4ccc5ncccc5c4)n3c2)cc1F (stereo unspecified)
- IC50 [1]: 3020 nM

- Drug metabolism (Liver microsome [7]): metabolite_notdetected
- Drug metabolism (Liver microsome [8]): metabolite_detected
- Drug metabolism (Liver microsome [9]): metabolite_detected
- Drug metabolism [10]: metabolite_detected
- Drug metabolism (Liver microsome [11]): metabolite_notdetected
- IC50 (MGC-803): > 50000 nM
- IC50 (HT-29): > 50000 nM
- IC50 (AGS): > 50000 nM
- IC50 (SNU1): > 50000 nM
- IC50 (A549): > 50000 nM
- IC50 [24]: > 10000 nM
- IC50 [25]: > 10000 nM
- IC50 [26]: > 10000 nM
- IC50 (BaF3): 203 nM
- half-life [33]: 1.17 h
- bioavailability [34]: 29.4%
- Drug metabolism [35]: metabolite_detected
- IC50 (NCI-H520): > 50000 nM
- IC50 (NCI-H1975): > 50000 nM
- IC50 (NCI-H1650): > 50000 nM
- IC50 (NCI-H1299): > 50000 nM
- IC50 (NCI-H596): > 50000 nM
- IC50 (NCI-H226): > 50000 nM
- IC50 (NCI-H292): > 50000 nM
- IC50 (NCI-H23): > 50000 nM
- IC50 (NCI-H358): > 50000 nM
- IC50 (NCI-H661): > 50000 nM
Compound: CNC(=O)c1ccc(-c2cc(F)c3ncc(Cc4ccc5ncccc5c4)n3c2)cc1F
- IC50 [12]: 93600 nM
- TGI (EBC-1 [13]): Dose-dependent effect
- inhibition in vivo at 100 mg/kg [14]: 75%
- inhibition in vivo at 50 mg/kg [15]: 62.9%
- Activity (Mus musculus): Non-toxic
- IC50 [16]: > 50000 nM
- IC50 [17]: > 50000 nM
- IC50 [18]: > 50000 nM
- IC50 [19]: > 50000 nM
- IC50 [20]: > 50000 nM
- IC50 [21]: > 50000 nM
- IC50 [22]: > 50000 nM
- IC50 [23]: > 50000 nM
- IC50 [1]: 45 nM
- IC50 [27]: 90.9 nM
- IC50 [28]: 70.2 nM
- Activity (EBC-1 [29]): Active
- Activity (EBC-1 [30]): 81.84%
- inhibition (NCI-H441 [31]): Active
- inhibition (NCI-H441 [32]): Active
- inhibition (MDCK): Dose-dependent effect

Compound: Cn1cc(-c2cc(F)c3ncc(Cc4ccc5ncccc5c4)n3c2)cn1
- IC50 [1]: 270 nM

Compound: O=C(NCCN1CCOCC1)c1ccc(-c2cc(F)c3ncc(Cc4ccc5ncccc5c4)n3c2)cc1F
- IC50 [1]: 52 nM

Compound: N#Cc1ccc(-c2cc(F)c3ncc(Cc4ccc5ncccc5c4)n3c2)cn1
- IC50 [1]: 188 nM

Compound: O=C(NCc1cc(F)cc(F)c1)c1ccc(-c2cc(F)c3ncc(Cc4ccc5ncccc5c4)n3c2)cc1F
- IC50 [1]: 53.6 nM

Compound: Fc1cc(-c2ccc(N3CCOCC3)nc2)cn2c(Cc3ccc4ncccc4c3)cnc12
- IC50 [1]: 225 nM

Compound: COc1ccc(-c2cc(F)c3ncc(Cc4ccc5ncccc5c4)n3c2)cc1F
- IC50 [1]: 407 nM

Compound: O=C(NC1CCCNC1)c1ccc(-c2cc(F)c3ncc(Cc4ccc5ncccc5c4)n3c2)cc1F (stereo unspecified)
- IC50 [1]: 138 nM

- IC50 (BaF3): 17.6 nM
Compound: Cn1cc(-c2ccc3nnc(C(F)(F)c4ccc5ncccc5c4)n3n2)cn1 [JNJ-38877605]
- IC50 [1]: 9.5 nM
- IC50 [27]: 10.9 nM
- IC50 [28]: 15.8 nM

Compound: CNC(=O)c1cccc(-c2cc(F)c3ncc(Cc4ccc5ncccc5c4)n3c2)c1
- IC50 [1]: 400 nM

- inhibition [3]: 5.9%
Compound: Cn1cc(-c2cn3c(Cc4ccc5ncccc5c4)cnc3cc2C(F)(F)F)cn1
